Here are results for twelve compounds from patent publication US8557859B2, “Immunomodulatory compositions” (Summit (Wales) Limited, priority 2003, dated 2013).

For assay [1], the system named is glycosidase. The note with it: see U.S. Pat. No. 5,075,457; cited from earlier work.
The subject of assay [2] is β-D-galactosidase. Nature of the assay: Glycosidase inhibition, β-D-galactosidase. In kind it is biochemical, Bovine liver. The note with it: 1 mg/ml; second galactosidase line. As to the method:
(§1) All enzymes were purchased from Sigma, as were the appropriate p-nitrophenyl substrates. Assays were carried out in microtitre plates. Enzymes were assayed in 0.1 M citric acid/0.2M di-sodium hydrogen phosphate (McIlvaine) buffers at the optimum pH for the enzyme. All assays were carried out at 20° C. For screening assays the incubation assay consisted of 10 μl of enzyme solution, 10 μl of inhibitor solution (made up in water) and 50 μl of the appropriate 5 mM p-nitrophenyl substrate (3.57 mM final conc.) made up in McIlvaine buffer at the optimum pH for the enzyme.
(§2) The reactions were stopped with 0.4M glycine (pH 10.4) during the exponential phase of the reaction, which was determined at the beginning of the assay using blanks with water, which were incubated for a range of time periods to measure the reaction rate using 5 mM substrate solution. Endpoint absorbances were read at 405 nm with a Biorad microtitre plate reader (Benchmark). Water was substituted for the inhibitors in the blanks.

In assay [3] the test system is β-D-glucosidase. Nature of the assay: Glycosidase inhibition, β-D-glucosidase. Type of assay: biochemical, Almonds (Prunus sp.). The note with it: 1 mg/ml. On the procedure:
as §1, §2

In assay [4] the test system is Naringinase. Nature of the assay: Glycosidase inhibition, Naringinase. In kind it is biochemical, Penecillium decumbens. To be noted: 1 mg/ml. As to the method:
as §1, §2

In assay [5] the test system is N-acetyl-β-D-glucosaminidase. Briefly: Glycosidase inhibition, N-acetyl-β-D-glucosaminidase. To be noted: 1 mg/ml. Type of assay: biochemical, Bovine kidney. On the procedure: as §1, §2
The test system of assay [6] is α-D-glucosidase. Nature of the assay: Glycosidase inhibition, α-D-glucosidase (Bacillus). In kind it is biochemical, Bacillus stearothermophilus. To be noted: 1 mg/ml. As to the method:
as §1, §2

The subject of assay [7] is Dendritic cells. Nature of the assay: Induction of IL-12 secretion in dendritic cells (ELISA). The note with it: dendritic cells; compounds 50 μg/ml and 20 μg/ml, 24 hrs (or 48 hrs). Type of assay: cell-based, BALB/c mice. As to the method:
BALB/c male and female mice bred and maintained at the University of Strathclyde under conventional conditions were used at 8 weeks old.
Bone marrow was obtained from the femurs of mice. The femurs were washed in 70% ethanol and placed in a clean petri dish. Dendritic cell (DC) medium (2.5% granulocyte-macrophage colony-stimulating factor (GM-CSF), 10% […] foetal calf serum, 1% L-glutamine, 1% Penicillin/Streptomycin in RPMI-1640 medium) was injected into the bone marrow of the femur by a pumping action and the cells and medium were collected. 1 ml of the cells in medium was added to a 75 cm^2 flask with 15 mls of DC medium. The flasks were then incubated at 37° C., 5% CO2 to allow DC growth and development. After 5 days an additional 10 mls of DC medium was added.
After 10 days of incubation of bone marrow with GM-CSF, the dendritic cells were harvested. This process was carried out in a tissue culture hood. The contents of the flasks were poured into centrifuge tubes to ensure collection of floating DCs. Approximately 10 mls of cooled phosphate buffered saline (PBS) was added to each empty flask, the flasks gently agitated and the contents collected. […] The collected contents of the flasks were centrifuged for 5 minutes at 200 g and the pellet resuspended in 2 mls of DC medium without GM-CSF. A cell count was then carried out.
Cells were counted using a haemocytometer. Approximately 20 μl of the resuspended cells was pipetted into the chamber of the haemocytometer, the cells were adjusted to the correct cell concentration (approx. 5×10^4, and not less than 1×10^4, per well) and then plated out for assay.
The plates were incubated overnight at 37° C. with 5% CO2 and allowed to settle (harvesting stimulates them). The next day the compounds (50 μg/ml and 20 μg/ml) and controls were added then again incubated at 37° C. with 5% CO2 for 24 hrs (or 48 hrs). Harvesting and addition of the compounds was all done in a hood. The plates were then frozen to kill the cells and once defrosted the supernatant analysed as described below.
Using an enzyme linked immunosorbent assay (ELISA) IL-12 concentration in the supernatants was measured. All reagents used in this assay were from PharMingen. A 96-well flat-bottomed ELISA plate was coated with purified rat anti-mouse IL-12 (p40/p70) MAb (Cat no. 554478) at 2 μg/ml diluted in PBS pH 9.0 at 50 μl/well. The plate was then covered in cling film and incubated at 4° C. Following incubation the plate was washed 3 times in washing buffer and dried. 200 μl of blocking buffer (10% foetal calf serum in PBS pH 7.0) was added to each well then covered in cling film and incubated at 37° C. for 45 minutes. The plate was washed 3 times and dried. Recombinant mouse Il-12 standard was added at 30 μl in duplicate wells, starting at 10 ng/ml then 5, 2.5, 1.25, 0.625, 0.31, 0.156, 0.078, 0.039, 0.020, 0.010, 0.005 ng/ml. Standards were diluted in blocking buffer. The supernatant samples were added in at 50 μl/well. The plate was then covered in cling film and incubated for 2 hours at 37° C. The plate was then washed 4 times, dried and the secondary antibody added.
Biotin labelled anti-mouse IL-12 (p40/p70) MAb (Cat no. 18482D) at 1 μg/ml (diluted in blocking buffer) was added to each well at a volume of 100 μl/well. The plate was covered in cling film and incubated at 37° C. for 1 hour. The plate was then washed 5 times, dried and the conjugate added. Streptavidin-AKP (Cat no. 13043E) at 100 μl/well was added at a dilution of 1/2000 in blocking buffer followed by incubation under cling film at 37° C. for 45 minutes.
The plate was finally washed 6 times, dried and the substrate added. pNPP (Sigma) in glycine buffer at 1 mg/ml was added at 100 μl/well. The plate was then covered in tinfoil, incubated at 37° C. and checked every 30 minutes for a colour change.
The plate was then read at 405 nm using a SPECTRAmax 190 spectrometer.
For orientation: ELISA stands for enzyme-linked immunosorbent assay.

Assay [8] deals with Spleen cells. Briefly: Cytokine modulation in spleen cells: splenocyte IFN-γ production. Type of assay: cell-based, BALB/c mice. To be noted: result in words. On the procedure: BALB/c male and female mice bred and maintained at the University of Strathclyde under conventional conditions were used at varying age.
The mouse spleen was removed aseptically and placed in a sterile petri dish containing 5 mls of complete medium (RPMI, 1% L-Glutamine, 1% Penicillin/Streptomycin and 10% foetal calf serum). Cells suspensions were prepared by using the end of a syringe and grinding the spleen through a wire mesh. The cell suspension was then centrifuged at 1000 rpm for 5 minutes. To remove the erythrocytes, the cell pellet was resuspended in Boyle's solution (Tris 0.17M & Ammonium Chloride 0.16M) and centrifuged again for 5 minutes. The pellet was then washed in medium a further two times, then resuspended in 3 mls medium. A cell count was then carried out.
All spleen cell experiments were carried out in 96-well tissue culture plates. […] Unstimulated wells contained 100 μl of cells and 100 μl of medium. The stimulated wells contained 100 μl of cells plus 50 μl of LPS at 1 μg/ml or 50 μl anti-CD3 at 0.5 μg/ml and 50 μl of medium. The remaining wells contained 100 μl cells, 50 μl of MNLP compound and either 50 μl of anti-CD3 or medium alone.
The appropriate Mabs and standards were used according to the protocol described for IL-12 (described in Example 1, above).

The subject of assay [9] is HSV-1 (SC16). Nature of the assay: Treatment of murine HSV-1 infection: ear pinna thickness. To be noted: for Ear pinna thickness (mm^−2): Group 4: via drinking water 1 mg/ml. Type of assay: in vivo, BALB/c mice.
Assay [10] is described as follows: Treatment of murine HSV-1 infection: body weight. In kind it is in vivo, BALB/c mice. To be noted: Group 4: via drinking water 1 mg/ml.

Consider `O[C@H]1[C@H]2[C@@H](O)CCN2C[C@H]1O` [7S-epimer (6)], for which the “glycosidase inhibitory activity relative to swainsonine” value in assay [1] is listed as “much weaker inhibitory activity relative to swainsonine itself”.

Consider `OC[C@H]1[C@@H](O)[C@H](O)[C@@H]2[C@@H](O)[C@H](O)CN21` [Compound 21, 3,6,7,7a-tetraepi-casuarine], for which the “% inhibition galactosidase” value in [2] was found to be 3%. Moreover, the “% inhibition glucosidase” value in [3] stood at 44%. In addition, the “% inhibition Naringinase” value in assay [4] worked out at 5%. The “% inhibition N-acetyl-β-gluc” value in assay [5] was determined as 27%. In addition, in [6], the “% inhibition gluc (Bacillus)” value was −2%.

As to `OC[C@H]1[C@@H](O)[C@H](O)[C@@H]2[C@@H](O)[C@@H](O)CN21` [Compound 22, 3,7,7a-triepi-casuarine], in assay [4], the “% inhibition Naringinase” value was determined as 10%. Further, the “% inhibition gluc (Bacillus)” value in assay [6] came to 87%.

With `OC[C@H]1[C@@H](O)[C@H](O)[C@H]2[C@@H](O)[C@H](O)CN21` [Compound 12, 3,6,7-triepi-casuarine], the “% inhibition galactosidase” value in assay [2] is recorded as 6%. The “% inhibition glucosidase” value in assay [3] is 6%. Moreover, in assay [4], the “% inhibition Naringinase” value was 0%. In addition, the “% inhibition N-acetyl-β-gluc” value in assay [5] stood at 19%. The “% inhibition gluc (Bacillus)” value in [6] worked out at 9%.

For `OC[C@H]1NC[C@H](O)[C@@H](O)[C@@H]1O` [1-Deoxynojirimycin (DNJ) (21), 1-Deoxynojirimycin], in [7], the “IL-12 RELEASE” value is recorded as “No”. In addition, the “IFN-γ secretion/production in splenocytes” value in assay [8] was “inhibited IFN-γ secretion/production in splenocytes”.

Turning to `CC(=O)OCC(CCn1cnc2cnc(N)nc21)COC(C)=O` [famciclovir, reference compound], the “Ear pinna thickness (mm^−2)” value in [9] (day 0) was determined as 0 mm^−2; in assay [9] (day 1) it was 0 mm^−2; in assay [9] (day 2), 0 mm^−2; in assay [9] (day 3), 7 mm^−2; in assay [9] (day 4), 7 mm^−2; in [9] (day 5) it was 0 mm^−2. The “Ear pinna thickness (mm^−2)” value is recorded as 4 mm^−2 in [9] (day 6); 0 mm^−2 in assay [9] (day 7); 2.9 mm^−2 in [9] (day 8); 2.9 mm^−2 in [9] (day 9); 2.9 mm^−2 in assay [9] (day 11); 0 mm^−2 in assay [9] (day −2). Also, in assay [9] (result in words, casuarine at both doses (15 and 150 mg/kg i.p.), famciclovir via drinking water 1 mg/ml), the ear thickness response result is on record as “almost completely negated the ear thickness response”. Moreover, the “Group mean weight” value is 15.1 g in assay [10] (day 0); 15.6 g in [10] (day 1); 15.8 g in assay [10] (day 2); 16.4 g in assay [10] (day 3); 16.3 g in assay [10] (day 4); 16.7 g in [10] (day 5). The “Group mean weight” value is 17.1 g in [10] (day 6); 16.7 g in assay [10] (day 7); 17.1 g in [10] (day 8); 17.1 g in [10] (day 9); 17.2 g in [10] (day 10); 17.1 g in [10] (day 11). Moreover, the entries for the “Group mean weight” value in assay [10] (day 12) and in assay [10] (day −2) were 17.2 g and 13.8 g, respectively. The “Weight (% change)” value in assay [10] (day 0) worked out at 9%; in [10] (day 1), 13%; in assay [10] (day 2), 14.5%; in [10] (day 3), 18.8%; in [10] (day 4), 18.1%; in assay [10] (day 5), 21%. For the same compound, the “Weight (% change)” value in assay [10] (day 6) is 23.9%; in [10] (day 7) it was 21%; in assay [10] (day 8), 23.9%; in assay [10] (day −2), 0%.

On to `OCC1O[C@H](O[C@H]2CN3[C@@H]([C@@H](O)[C@H](O)[C@H]3CO)[C@@H]2O)C(O)[C@@H](O)[C@@H]1O` (stereo partly drawn) [casuarine-6-α-D-glucopyranose (9), casuarine-6-α-D-glucopyranose], for which, in assay [7], the “IL-12 RELEASE” value is listed as “Yes”.

Turning to `OC[C@@H]1[C@@H](O)[C@H](O)[C@H]2[C@@H](O)CCN21` [7-epialexine (22), 7-epialexine], in [7], the “IL-12 RELEASE” value is on record as “No”.

Take `O[C@H]1[C@H]2[C@H](O)CCN2C[C@H]1O` [(1S,2R,7R,7aR)-1,2,7-trihydroxypyrrolizidine]: the “glycosidase inhibitory activity relative to swainsonine” value in assay [1] is recorded as “much weaker inhibitory activity relative to swainsonine itself”.

Consider `OC[C@@H]1[C@@H](O)[C@H](O)[C@H]2[C@@H](O)[C@@H](O)CN21` [7-epi-casuarine (11), 7-epi-casuarine], for which, in [3], the “% inhibition glucosidase” value was 30%. Besides, the “IL-12 RELEASE” value in [7] was “Yes”. In addition, the “% inhibition Naringinase” value in assay [4] is on record as −4%. For the same compound, in assay [6], the “% inhibition gluc (Bacillus)” value came to 5%.

Turning to `OC[C@@H]1[C@@H](O)[C@H](O)[C@@H]2[C@@H](O)CCN21` [Alexine (1), Alexine], in assay [7], the “IL-12 RELEASE” value is reported as “No”.

Turning to `OC[C@H]1[C@@H](O)[C@H](O)[C@H]2[C@@H](O)CCN21` [3,7a-diepialexine (23), 3,7a-diepialexine], the “IL-12 RELEASE” value in assay [7] is reported as “No”.
